Experimental findings from ChEMBL document CHEMBL2157996, “Thioglycine and L-thiovaline: biologically active H₂S-donors” (Bioorg Med Chem, 2012) are described below.

Activity calls are given as the source filed them. No cut-off for these calls is given here.

The nature of data set [1]: Induction of H2S production at 200 uM measured every 15 sec to 1 min by thiobimane fluorescent method.
The nature of data set [2]: Vasodilatory activity in Wistar rat RASMC cells assessed as increase in cGMP levels after 5 mins by enzyme immunoassay. It is filed as functional, cell-based.
The nature of data set [3]: Drug degradation in Hanks buffered salt solution assessed as formation of glycine N-carboxyanhydride at 37 degC. Particulars: buffer. The class given is physicochemical.
The nature of data set [4]: Induction of H2S production after 15 mins by methylene blue method. The class given is physicochemical. Particulars: 0.25 h.
Data set [5] in a line: Vasodilatory activity in Wistar rat RASMC cells assessed as increase in cGMP levels at 100 uM after 5 mins by enzyme immunoassay relative to control. It is filed as functional, cell-based.
The nature of data set [6]: Induction of H2S production after 60 mins by thiobimane fluorescent method. The class given is physicochemical. Particulars: 1 h.
Data set [7] is described as follows: Stability of the compound assessed as compound remaining at 40 degC after 24 hrs by NMR spectroscopy in the presence of NaHCO3. The class given is physicochemical. Particulars: NaHCO3 present; read-out: Stability.
A short description of data set [8]: Stability of the compound assessed as compound remaining at 40 degC after 48 hrs by NMR spectroscopy in the presence of NaHCO3. The class given is physicochemical. Particulars: NaHCO3 present; read-out: Stability.
The test system of data set [9] is Rattus norvegicus. As to the kind of experiment: Induction of H2S release in Sprague-Dawley rat plasma assessed as increase in H2S levels at 5 mg/kg, ip upto 8 hrs by amperometry. It is filed as functional, organism-based. Further details: dose 5 mg/kg.
A short description of data set [10]: Vasodilatory activity in Wistar rat RASMC cells assessed as increase in cGMP levels up to 3 mM after 5 mins by enzyme immunoassay. The class given is functional, cell-based.
The nature of data set [11]: Induction of H2S production at 100 uM by amperometry. It is filed as physicochemical.
Data set [12] in a line: Induction of H2S production by amperometry. It is filed as physicochemical.
Data set [13] can be described thus: Stability of the compound assessed as compound remaining at 40 degC after 36 hrs by NMR spectroscopy in the presence of NaHCO3. The class given is physicochemical. Particulars: NaHCO3 present; read-out: Stability.
A short description of data set [14]: Induction of H2S production by sodium nitroprusside assay. The class given is physicochemical.
A short description of data set [15]: Stability of the compound assessed as compound remaining at 25 degC after 24 hrs by NMR spectroscopy in the presence of NaHCO3. It is filed as physicochemical. Particulars: NaHCO3 present; read-out: Stability.
For data set [16], the system named is Rattus norvegicus. The data set can be described thus: Induction of H2S release in Sprague-Dawley rat plasma assessed as increase in H2S levels at 5 mg/kg, ip by amperometry. It is filed as functional, organism-based. Particulars: TDE = time-dependent effect. Further details: dose 5 mg/kg.
Data set [17] in a line: Stability of the compound assessed as compound remaining at 40 degC after 72 hrs by NMR spectroscopy in the presence of NaHCO3. Particulars: NaHCO3 present; read-out: Stability. The class given is physicochemical.
In data set [18] the test system is Rattus norvegicus. As to the kind of experiment: Induction of H2S release in Sprague-Dawley rat plasma assessed as increase in H2S levels at 5 mg/kg, ip after 30 mins by amperometry. The class given is functional, organism-based. Further details: dose 5 mg/kg.
A short description of data set [19]: Stability of the compound assessed as compound remaining at 40 degC after 60 hrs by NMR spectroscopy in the presence of NaHCO3. It is filed as physicochemical. Particulars: NaHCO3 present; read-out: Stability.

In the case of `CC(C)[C@H](N)C(=O)S`, the results for the Activity entry in data set [1], in data set [2] and in [4] were “Active”, “Dose-dependent effect” and “Active”, respectively. The Drug metabolism entry in data set [3] is reported as “Active”.
In the case of `CC(C)[C@H](N)C(=O)O`, in data set [5], the outcome was inactive.
On the same count and under the same terms, as for `NCC(=O)O`, the entry is “inactive”.
`NCC(=O)S` [THIOGLYCIN]: the Activity result in [6] was “Active”; in [1], “Active”; in [2] it was “Dose-dependent effect”; in data set [11], “Active”; in [12], “Dose-dependent effect”; in [14] it was “Active”. Further, the Activity result is “tde” in data set [16] and “Active” in [4]. The remaining at 24 h came to 88% in data set [7] and 100% in data set [15]. In addition, the remaining at 48 h in [8] is 76%. For the same molecule, the result in data set [9], in [10] and in [18] was Active. In addition, in data set [13], the remaining at 36 h worked out at 83%. Moreover, the fold change (FC) in [5] was found to be 10. Besides, the Drug metabolism entry in data set [3] is listed as “Active”. Further, the remaining at 72 h in data set [17] was 85%. Besides, the remaining at 60 h in data set [19] came out at 72%.
